Measurements as given in the supplement of paper PMC12137928.
Structures can show the parent of a compound that is named as a salt.

Test system: HCT116
Conditions: 72 h
Outline: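 After seeding at 250 cells per well in 1536-well plates, HCT116 cells were given 5 h to attach. CellTiter-Glo luminescence, scaled to 0% for vehicle and -100% for positive control, was pattern-corrected. Fitting with a four-parameter Hill model produced IC50 and maximal efficacy.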

SMILES | IC50 cell viability (ICRF193 0 nM) [µM] | IC50 cell viability (ICRF193 200 nM) [µM]
CC(=O)OC[C@H]1O[C@@](COC(C)=O)(O[C@H]2O[C@H](COC(C)=O)[C@@H](OC(C)=O)[C@H](OC(C)=O)[C@H]2OC(C)=O)[C@@H](OC(C)=O)[C@@H]1OC(C)=O [Sucrose octaacetate] | > 45.8 | > 45.8
O=S(=O)(O)OC[C@H]1O[C@@](COS(=O)(=O)O)(O[C@H]2O[C@H](COS(=O)(=O)O)[C@@H](OS(=O)(=O)O)[C@H](OS(=O)(=O)O)[C@H]2OS(=O)(=O)O)[C@@H](OS(=O)(=O)O)[C@@H]1OS(=O)(=O)O [Sucrose octasulfate, sodium salt] | > 45.8 | > 45.8
OC[C@H]1O[C@@](CO)(O[C@H]2O[C@H](CO)[C@@H](O)[C@H](O)[C@H]2O)[C@@H](O)[C@@H]1O [Sucrose] | > 45.8 | > 45.8
O=C(O)CCSC[C@H]1O[C@@H]2O[C@H]3[C@H](O)[C@@H](O)[C@@H](O[C@H]4[C@H](O)[C@@H](O)[C@@H](O[C@H]5[C@H](O)[C@@H](O)[C@@H](O[C@H]6[C@H](O)[C@@H](O)[C@@H](O[C@H]7[C@H](O)[C@@H](O)[C@@H](O[C@H]8[C@H](O)[C@@H](O)[C@@H](O[C@H]9[C@H](O)[C@@H](O)[C@@H](O[C@H]1[C@H](O)[C@H]2O)O[C@@H]9CSCCC(=O)O)O[C@@H]8CSCCC(=O)O)O[C@@H]7CSCCC(=O)O)O[C@@H]6CSCCC(=O)O)O[C@@H]5CSCCC(=O)O)O[C@@H]4CSCCC(=O)O)O[C@@H]3CSCCC(=O)O [Sugammadex] | > 45.8 | > 45.8
CC1(C)S[C@@H]2[C@H](NC(=O)C(c3ccccc3)S(=O)(=O)O)C(=O)N2[C@H]1C(=O)O (some centres undefined) [Sulbenicillin disodium] | > 45.8 | > 45.8
S=C1SCN(Cc2ccccc2)CN1Cc1ccccc1 [Sulbentine] | > 45.8 | > 45.8
CCOC(=O)c1ccc(NC(=O)CN2CCCCC2)cc1 [Sulcaine] | > 45.8 | > 45.8
CC(=O)Nc1ccc(S(=O)(=O)Nc2ccc([N+](=O)[O-])cc2)cc1 [Sulfanitran] | > 45.8 | > 45.8
O=C(O)c1cc(/N=N/c2ccc(S(=O)(=O)Nc3ccccn3)cc2)ccc1O [Sulfasalazine] | > 45.8 | > 45.8
O=C1OC(c2ccc(O)c(S(=O)(=O)O)c2)(c2ccc(O)c(S(=O)(=O)O)c2)c2c(Br)c(Br)c(Br)c(Br)c21 [Sulfobromophthalein] | > 45.8 | > 45.8
CC1=C(CC(=O)O)c2cc(F)ccc2/C1=C\c1ccc([S+](C)[O-])cc1 (centres undefined) [Sulindac] | > 45.8 | > 45.8
COc1cc(O)c(C(=O)c2ccccc2)cc1S(=O)(=O)O [Sulisobenzone] | > 45.8 | > 45.8
CC1(C)S[C@@H]2[C@H](NC(=O)[C@H](N)c3ccccc3)C(=O)N2[C@H]1C(=O)OCOC(=O)[C@@H]1N2C(=O)C[C@H]2S(=O)(=O)C1(C)C [Sultamicillin tosylate] | > 45.8 | > 45.8
CCN1CCCC1CNC(=O)c1cc(S(=O)(=O)CC)ccc1OC (centres undefined) [Sultopride hydrochloride] | > 45.8 | > 45.8
CNS(=O)(=O)Cc1ccc2[nH]cc(CCN(C)C)c2c1 [Sumatriptan] | > 45.8 | > 45.8
CCOCC(O)COc1ccc(NC(=O)CC[S+](C)C)cc1 (centres undefined) [Suplatast tosylate] | > 45.8 | > 45.8
CC(C(=O)O)c1ccc(C(=O)c2cccs2)cc1 (centres undefined) [Suprofen] | > 45.8 | > 45.8
O=c1n(Cl)c(=O)n(Cl)c(=O)n1Cl [Symclosene] | > 45.8 | > 45.8
CNCc1cc(-c2ccccc2F)n(S(=O)(=O)c2cccnc2)c1 [TAK 438] | > 45.8 | > 45.8
CC[C@H]1OC(=O)[C@H](C)C(=O)[C@H](C)[C@@H](O[C@@H]2O[C@H](C)C[C@H](N(C)C)[C@H]2O)[C@](C)(OC)C[C@@H](C)C(=O)[C@H](C)[C@H]2N(CCCCn3cnc(-c4cccnc4)c3)C(=O)O[C@]12C [TELITHROMYCIN] | > 45.8 | > 45.8
CC[C@H]1OC(=O)C[C@@H](O)[C@H](C)[C@@H](O[C@@H]2O[C@H](C)[C@@H](O)[C@H](N(C)C)[C@H]2O)[C@@H](CCN2C[C@H](C)C[C@H](C)C2)C[C@@H](C)C(=O)/C=C/C(C)=C/[C@@H]1CO[C@@H]1O[C@H](C)[C@@H](O)[C@@H](OC)[C@H]1OC [TILMICOSIN] | > 45.8 | > 45.8
CCOC(=O)[C@H](CCc1ccccc1)N[C@@H](C)C(=O)N1[C@H](C(=O)O)C[C@H]2CCCC[C@@H]21 [TRANDOLAPRIL] | > 45.8 | > 45.8
NC[C@H]1CC[C@H](C(=O)O)CC1 [TRANEXAMIC ACID] | > 45.8 | > 45.8
Cc1cc(-c2ccc(/N=N/c3c(S(=O)(=O)O)cc4cc(S(=O)(=O)O)cc(N)c4c3O)c(C)c2)ccc1/N=N/c1c(S(=O)(=O)O)cc2cc(S(=O)(=O)O)cc(N)c2c1O [TRYPAN BLUE] | > 45.8 | > 45.8
CC[C@H]1OC(=O)C[C@@H](O)[C@H](C)[C@@H](O[C@@H]2O[C@H](C)[C@@H](O[C@H]3C[C@@](C)(O)[C@@H](O)[C@H](C)O3)[C@H](N(C)C)[C@H]2O)[C@@H](CC=O)C[C@@H](C)C(=O)/C=C/C(C)=C/[C@@H]1CO[C@@H]1O[C@H](C)[C@@H](O)[C@@H](OC)[C@H]1OC [TYLOSIN TARTRATE] | > 45.8 | > 45.8
Nc1c2c(nc3ccccc13)CCCC2 [Tacrine hydrochloride] | > 45.8 | > 45.8
CN1CC(=O)N2[C@H](c3ccc4c(c3)OCO4)c3[nH]c4ccccc4c3C[C@@H]2C1=O [Tadalafil] | > 45.8 | > 45.8
O=C(O)c1ccc2nc(-c3cc(Cl)cc(Cl)c3)oc2c1 [Tafamidis] | > 45.8 | > 45.8
C=Cc1c(C)c2cc3nc(c(CC(=O)N[C@@H](CC(=O)O)C(=O)O)c4[nH]c(cc5nc(cc1[nH]2)C(C)=C5CC)c(C)c4C(=O)O)[C@@H](CCC(=O)O)[C@@H]3C [Talaporfin sodium] | > 45.8 | > 45.8

Continued, values first:

IC50 cell viability (ICRF193 0 nM) [µM] | IC50 cell viability (ICRF193 200 nM) [µM] | SMILES
> 45.8 | > 45.8 | Nc1ccc(S(=O)(=O)NC(=O)c2ccccc2)cc1 [Sulfabenzamide]
> 45.8 | > 45.8 | Cc1nc(NS(=O)(=O)c2ccc(N)cc2)nc(C)c1Br [Sulfabromomethazine]
> 45.8 | > 45.8 | CC(=O)NS(=O)(=O)c1ccc(N)cc1 [Sulfacetamide]
> 45.8 | > 45.8 | Nc1ccc(S(=O)(=O)Nc2ccc(Cl)nn2)cc1 [Sulfachloropyridazine]
> 45.8 | > 45.8 | CCn1ccc(NS(=O)(=O)c2ccc(N)cc2)nc1=O [Sulfacytine]
> 45.8 | > 45.8 | COc1cc(NS(=O)(=O)c2ccc(N)cc2)nc(OC)n1 [Sulfadimethoxine]
> 45.8 | > 45.8 | COc1ncnc(NS(=O)(=O)c2ccc(N)cc2)c1OC [Sulfadoxine]
> 45.8 | > 45.8 | CCOc1ccc(NS(=O)(=O)c2ccc(N)cc2)nn1 [Sulfaethoxypyridazine]
> 45.8 | > 45.8 | N=C(N)NS(=O)(=O)c1ccc(N)cc1 [Sulfaguanidine]
> 45.8 | > 45.8 | COc1nccnc1NS(=O)(=O)c1ccc(N)cc1 [Sulfalene]
> 45.8 | > 45.8 | Cc1ccnc(NS(=O)(=O)c2ccc(N)cc2)n1 [Sulfamerazine]
> 45.8 | > 45.8 | COc1cnc(NS(=O)(=O)c2ccc(N)cc2)nc1 [Sulfameter]
> 45.8 | > 45.8 | Cc1cc(C)nc(NS(=O)(=O)c2ccc(N)cc2)n1 [Sulfamethazine]
> 45.8 | > 45.8 | Cc1nnc(NS(=O)(=O)c2ccc(N)cc2)s1 [Sulfamethizole]
> 45.8 | > 45.8 | COc1cc(NS(=O)(=O)c2ccc(N)cc2)nc(C)n1 [Sulfamethomidine]
> 45.8 | > 45.8 | Cc1cc(NS(=O)(=O)c2ccc(N)cc2)no1 [Sulfamethoxazole]
> 45.8 | > 45.8 | COc1ccc(NS(=O)(=O)c2ccc(N)cc2)nn1 [Sulfamethoxypyridazine]
> 45.8 | > 45.8 | COc1cc(NS(=O)(=O)c2ccc(N)cc2)ncn1 [Sulfamonomethoxine]
> 45.8 | > 45.8 | Nc1ccc(S(N)(=O)=O)cc1 [Sulfanilamide]
> 45.8 | > 45.8 | Nc1ccc(S(=O)(=O)Nc2ccnn2-c2ccccc2)cc1 [Sulfaphenazole]
> 45.8 | > 45.8 | Nc1ccc(S(=O)(=O)Nc2ccccn2)cc1 [Sulfapyridine]
> 45.8 | > 45.8 | Nc1ccc(S(=O)(=O)Nc2cnc3ccccc3n2)cc1 [Sulfaquinoxaline]
> 45.8 | > 45.8 | Nc1ccc(S(=O)(=O)Nc2nccs2)cc1 [Sulfathiazole]
> 45.8 | > 45.8 | NC(=S)NS(=O)(=O)c1ccc(N)cc1 [Sulfathiourea]
> 45.8 | > 45.8 | Cc1cc(NS(=O)(=O)c2ccc(N)cc2)nc(C)n1 [Sulfisomidine]
> 45.8 | > 45.8 | CC(=O)N(c1onc(C)c1C)S(=O)(=O)c1ccc(N)cc1 [Sulfisoxazole acetal]
> 45.8 | > 45.8 | Cc1noc(NS(=O)(=O)c2ccc(N)cc2)c1C [Sulfisoxazole]
> 45.8 | > 45.8 | NS(=O)(=O)c1ccc(N2CCCCS2(=O)=O)cc1 [Sulthiame]
